The target of assay [1] is T1, S1P1 (Homo sapiens, UniProt P21453). Briefly: CNG cAMP Assay (Assay 1). Type of assay: cell-based. The arrangement: host or cells: HEK293 cells expressing the CNG channel. The note with it: read-out: Assay 1 EC50. In a few lines:
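HEK293 cells expressing CNG channel and S1P1, membrane-potential dye loaded; compounds (top 10 μM, 10-point 3-fold, 1.8% DMSO) added with 25 μM Ro 20-1724, 500 nM NECA and 10 nM S1P for 90 min. T90/T0 fluorescence (Ex 350/Em 590 nm) normalised to NECA-alone vs DMSO; EC50 fitted.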
Target sequence in this assay (P21453 whole entry): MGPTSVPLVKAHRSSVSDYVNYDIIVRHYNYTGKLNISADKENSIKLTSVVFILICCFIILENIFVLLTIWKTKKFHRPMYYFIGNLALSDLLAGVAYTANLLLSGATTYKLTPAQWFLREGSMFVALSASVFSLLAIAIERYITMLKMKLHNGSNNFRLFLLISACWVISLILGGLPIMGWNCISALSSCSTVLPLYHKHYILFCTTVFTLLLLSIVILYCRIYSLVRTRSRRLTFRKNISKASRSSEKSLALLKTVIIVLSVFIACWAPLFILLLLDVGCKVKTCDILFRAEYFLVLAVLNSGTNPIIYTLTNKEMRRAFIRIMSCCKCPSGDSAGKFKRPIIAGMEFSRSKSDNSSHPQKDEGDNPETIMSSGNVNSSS

The target of assay [2] is T1, S1P1. As to the kind of experiment: Tango β-arrestin Recruitment Assay in HEK293 cells (Assay 2a). On the set-up: linker with TEV protease (N1a) cleavage site (C); host or cells: HEK293, transiently transfected. Type of assay: cell-based. From the text:
For the Tango™ β-arrestin recruitment assay, the cytoplasmic C-terminus of S1P1 is tethered to the tTA transcriptional activator with a linker that contains a cleavage site for the N1a protease from tobacco etch virus (TEV protease). The C-terminus of the human β-arrestin2 protein is fused to TEV protease. Binding of an agonist recruits the β-arrestin-TEV fusion protein to the receptor resulting in cleavage of the linker and release of tTA to enter the nucleus and subsequently activate a tTA-dependent luciferase reporter gene.
Frozen HEK293 cells transiently transfected with receptor cDNAs for S1P1 (Invitrogen) were thawed and suspended in 10 mL of Pro293a-CDM culture medium (Invitrogen) supplemented with 4 mM L-Glutamine (Invitrogen), 1× Pen/Strep (100 units/mL penicillin and 100 μg/mL streptomycin, Invitrogen) and 0.1% fatty acid free BSA (Sigma-Aldrich). Cells were added to the wells of a 384-well white opaque bottom assay plate (PerkinElmer) at 3,000-6,000 cells per well and the plate was incubated for approximately 4 h in a 37° C. incubator. Test compounds were tested at maximum concentrations of 10 μM for the agonist assays. Compounds were diluted in DMSO (10 concentration points, 3-fold each) and added to the assay plate at a 1% final DMSO concentration. For each compound, there were duplicate assay plates and each assay plate had duplicate wells per concentration point. The plate was incubated at 37° C. for 30 min. The efficacy control was 5 μM S1P (Avanti). Following agonist addition, the assay plates were incubated in a 37° C. incubator for 16-18 h. Luciferase assay reagent was added and luminescence measured in an EnVision plate reader (PerkinElmer). To determine agonist activity, percent activity was calculated as [(test compound−background)/(positive control−background)* 100], where background is the luminescence of the DMSO alone control and the positive control is the luminescence from cells incubated with the efficacy control 5 μM S1P. The percent activities were plotted against compound concentration to determine EC50 using XLFit (IDBS).
Assay 1 is the CNG cAMP Assay as described in Biological Example 1. Assay 2a and 2b are the Tango™ β-arrestin Recruitment Assay in HEK293 and U2OS cells, respectively, as described in Biological Example 2. Assay 3a is the hS1P1R GTPγS Binding Assay as described in Biological Example 3. Assay 3b is the GTP-Eu Binding Assay as described in Biological Example 3. EC50's were measured unless otherwise noted. […] In the table, “nt” means the Compound was not tested and “no” means the compound was tested but had no measurable activity under the assay conditions employed.
Target sequence in this assay (P21453 whole entry): as above
Target sequence in this assay (P32121 whole entry partner): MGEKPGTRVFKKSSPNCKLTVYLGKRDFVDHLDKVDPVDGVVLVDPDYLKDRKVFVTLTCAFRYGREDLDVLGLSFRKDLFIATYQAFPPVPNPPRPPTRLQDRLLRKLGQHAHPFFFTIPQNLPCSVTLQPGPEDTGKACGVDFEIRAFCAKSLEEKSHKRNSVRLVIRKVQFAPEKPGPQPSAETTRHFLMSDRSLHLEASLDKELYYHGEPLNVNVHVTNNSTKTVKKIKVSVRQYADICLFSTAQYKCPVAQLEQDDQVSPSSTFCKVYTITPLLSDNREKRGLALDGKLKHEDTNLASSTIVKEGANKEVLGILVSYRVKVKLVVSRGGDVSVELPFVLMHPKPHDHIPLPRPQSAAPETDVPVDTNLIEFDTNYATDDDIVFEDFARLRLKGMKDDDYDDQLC

[3] abbreviates: Tango β-arrestin Recruitment Assay, read-out: Assay 2a EC50.
Setting [4] is: Tango β-arrestin, footnote 1: Relative EC50 was measured, read-out: Assay 2a Relative EC50.

By EC50 is commonly meant the concentration needed to bring the measured effect to its halfway point.

In the case of `O=C(O)/C=C/c1ccc(-c2noc(-c3cn4cc(C(F)(F)F)cc(Cl)c4n3)n2)c(Cl)c1` [Entry 3], the results for the EC50 on S1P1 [1] and at S1P1 [2] (setting [3]) were at most 100 nM and 100 to 500 nM, respectively.
Consider `O=C(O)CCc1ccc(-c2noc(-c3cn4cc(C(F)(F)F)cc(Cl)c4n3)n2)c(F)c1` [Entry 19], for which the EC50 is at most 100 nM on S1P1 [1] and 100 to 500 nM at S1P1 [2] (setting [3]).
On to `NC(=O)CCc1ccc(-c2noc(-c3cn4cc(C(F)(F)F)cc(Cl)c4n3)n2)c(Cl)c1` [Entry 20], for which the EC50 at S1P1 [1] and at S1P1 [2] (setting [3]) was at most 100 nM in each case.
Turning to `Cc1cc(Br)c2nc(-c3nc(-c4cc(F)c(CCC(=O)O)cc4Cl)no3)cn2c1` [Entry 25], the concentration giving a half-maximal response (EC50) at S1P1 [1] and at S1P1 [2] (setting [3]) was at most 100 nM in each case.
On to `Cc1cc(Cl)c2nc(-c3nc(-c4cc(F)c(CCC(=O)O)cc4Cl)no3)cn2c1` [Entry 28], for which the EC50 on S1P1 [1] and at S1P1 [2] (setting [3]) was at most 100 nM throughout.
Turning to `O=C(O)CCc1cc(Cl)c(-c2noc(-c3cn4cc(I)ccc4n3)n2)cc1F` [Entry 31], the EC50 at S1P1 [1] and at S1P1 [2] (setting [3]) was at most 100 nM throughout.
Consider `O=C(O)CCc1cc(Cl)c(-c2noc(-c3cn4cc([N+](=O)[O-])cc(Cl)c4n3)n2)cc1F` [Entry 36], for which the EC50 on S1P1 [1] was at most 100 nM; on S1P1 [2] (setting [3]), 100 to 500 nM.
Consider `N#Cc1cc(Br)c2nc(-c3nc(-c4cc(F)c(CCC(=O)O)cc4Cl)no3)cn2c1` [Entry 47], for which the EC50 on S1P1 [1] is at most 100 nM; on S1P1 [2] (setting [3]) it was 100 to 500 nM.
For `O=C(O)C(O)COc1cc(Cl)c(-c2noc(-c3cn4cc(C(F)(F)F)cc(Cl)c4n3)n2)cc1Cl` (stereo not drawn) [Entry 58], the EC50 on S1P1 [2] (setting [3]) is at most 100 nM.
`O=C(O)CCc1cc(Cl)c(-c2noc(-c3cn4cc(Br)cc(Cl)c4n3)n2)cc1F` [Entry 64]: the EC50 on S1P1 [1] and on S1P1 [2] (setting [3]) was at most 100 nM in each case.
For `Cc1ccc(Oc2cc(Cl)c3nc(-c4nc(-c5cc(F)c(CCC(=O)O)cc5Cl)no4)cn3c2)cc1` [Entry 67], the EC50 at S1P1 [2] (setting [3]) was at most 100 nM.
`O=C(O)CCc1cc(Cl)c(-c2noc(-c3cn4cc(Br)cc(Br)c4n3)n2)cc1F` [Entry 71]: the EC50 on S1P1 [2] (setting [3]) was at most 100 nM.
In the case of `COCCOc1cc(Cl)c(-c2noc(-c3cn4cc(C(F)(F)F)cc(Cl)c4n3)n2)cc1Cl` [Entry 76], the EC50 on S1P1 [2] (setting [3]) is at most 100 nM.
Consider `O=C(O)CN1CCC(Oc2cc(Cl)c(-c3noc(-c4cn5cc(C(F)(F)F)cc(Cl)c5n4)n3)cc2F)C1` (stereo not drawn) [Example 92, {3-[(5-chloro-4-{5-[8-chloro-6-(trifluoromethyl)imidazo[1,2-a]pyridin-2-yl]-1,2,4-oxadiazol-3-yl}-2-fluorophenyl)oxy]pyrrolidin-1-yl}acetic acid], for which the EC50 on S1P1 [1] and on S1P1 [2] (setting [3]) was at most 100 nM in each case.
As for `O=C(O)[C@H]1C[C@H](Oc2ccc(-c3noc(-c4cn5cc(C(F)(F)F)cc(Cl)c5n4)n3)c(Cl)c2)CN1` [Example 97, (4S)-4-[(3-chloro-4-{5-[8-chloro-6-(trifluoromethyl)imidazo[1,2-a]pyridin-2-yl]-1,2,4-oxadiazol-3-yl}phenyl)oxy]-D-proline], the EC50 on S1P1 [1] and at S1P1 [2] (setting [3]) was at most 100 nM throughout.
Consider `Cc1cc(NS(C)(=O)=O)ccc1-c1noc(-c2cn3cc(C(F)(F)F)cc(Cl)c3n2)n1` [Example 98, N-(4-{5-[8-chloro-6-(trifluoromethyl)imidazo[1,2-a]pyridin-2-yl]-1,2,4-oxadiazol-3-yl}-3-methylphenyl)methanesulfonamide], for which the EC50 at S1P1 [1] and on S1P1 [2] (setting [3]) was at most 100 nM throughout.
As for `CC(O)COc1c(Cl)cc(-c2noc(-c3cn4cc(C(F)(F)F)cc(Cl)c4n3)n2)cc1Cl` (stereo not drawn) [Example 104, 1-[(2,6-dichloro-4-{5-[8-chloro-6-(trifluoromethyl)imidazo[1,2-a]pyridin-2-yl]-1,2,4-oxadiazol-3-yl}phenyl)oxy]propan-2-ol], the EC50 on S1P1 [2] (setting [3]) was at most 100 nM.
The same measure, in the same setting: next, `OC(CF)COc1cc(Cl)c(-c2noc(-c3cn4cc(C(F)(F)F)cc(Br)c4n3)n2)cc1Cl` (stereo not drawn) [Example 110, 1-[(4-{5-[8-bromo-6-(trifluoromethyl)imidazo[1,2-a]pyridin-2-yl]-1,2,4-oxadiazol-3-yl}-2,5-dichlorophenyl)oxy]-3-fluoropropan-2-ol]: at most 100 nM.
With `OCCNc1ccc(-c2noc(-c3cn4cc(C(F)(F)F)cc(Cl)c4n3)n2)c(Cl)c1` [Example 115, 2-[(3-chloro-4-{5-[8-chloro-6-(trifluoromethyl)imidazo[1,2-a]pyridin-2-yl]-1,2,4-oxadiazol-3-yl}phenyl)amino]ethanol], the EC50 at S1P1 [2] (setting [3]) is at most 100 nM.
On to `CS(=O)(=O)NCc1ccc(-c2noc(-c3cn4cc(C(F)(F)F)cc(Cl)c4n3)n2)c(Cl)c1` [Example 136, N-[(3-chloro-4-{5-[8-chloro-6-(trifluoromethyl)imidazo[1,2-a]pyridin-2-yl]-1,2,4-oxadiazol-3-yl}phenyl)methyl]methanesulfonamide], for which the EC50 on S1P1 [1] and at S1P1 [2] (setting [3]) was at most 100 nM in each case.
In the case of `OCCNCc1cc(Cl)c(-c2noc(-c3cn4cc(C(F)(F)F)cc(Cl)c4n3)n2)cc1Cl` [Example 138, 2-{[(2,5-dichloro-4-{5-[8-chloro-6-(trifluoromethyl)imidazo[1,2-a]pyridin-2-yl]-1,2,4-oxadiazol-3-yl}phenyl)methyl]amino}ethanol], the concentration for a half-maximal effect (EC50) at S1P1 [2] (setting [4]) lay in the range of 100 to 500 nM.
Consider `Fc1cccc(F)c1-c1noc(-c2cn3cc(C(F)(F)F)cc(Cl)c3n2)n1` [Example 141, 8-chloro-2-[3-(2,6-difluorophenyl)-1,2,4-oxadiazol-5-yl]-6-(trifluoromethyl)imidazo[1,2-a]pyridine], for which the EC50 on S1P1 [1] lay in the range of 500 to 1000 nM; on S1P1 [2] (setting [3]) it was 100 to 500 nM.
In the same order, the values of `Fc1ccccc1-c1noc(-c2cn3cc(C(F)(F)F)cc(Cl)c3n2)n1` [Example 142, 8-chloro-2-[3-(2-fluorophenyl)-1,2,4-oxadiazol-5-yl]-6-(trifluoromethyl)imidazo[1,2-a]pyridine] are 100 to 500 nM and 500 to 1000 nM.
`Cc1ccccc1-c1noc(-c2cn3cc(C(F)(F)F)cc(Cl)c3n2)n1` [Example 150, 8-chloro-2-[3-(2-methylphenyl)-1,2,4-oxadiazol-5-yl]-6-(trifluoromethyl)imidazo[1,2-a]pyridine]: the results for the EC50 at S1P1 [1] and on S1P1 [2] (setting [3]) were at most 100 nM and 100 to 500 nM, respectively.
For the compound `CC(Cc1cc(Cl)c(-c2noc(-c3cn4cc(C(F)(F)F)cc(Cl)c4n3)n2)cc1Cl)C(=O)O` (stereo not drawn) [Example 190, 3-(2,5-dichloro-4-{5-[8-chloro-6-(trifluoromethyl)imidazo[1,2-a]pyridin-2-yl]-1,2,4-oxadiazol-3-yl}phenyl)-2-methylpropanoic acid], the EC50 at S1P1 [2] (setting [4]) fell in the range of 100 to 500 nM.
In the case of `CC(Cc1cc(Cl)c(-c2noc(-c3cn4cc(C(F)(F)F)cc(Br)c4n3)n2)cc1Cl)C(=O)O` (stereo not drawn) [Example 225, 3-(4-{5-[8-bromo-6-(trifluoromethyl)imidazo[1,2-a]pyridin-2-yl]-1,2,4-oxadiazol-3-yl}-2,5-dichlorophenyl)-2-methylpropanoic acid], at S1P1 [2] (setting [4]), the EC50 lay in the range of 100 to 500 nM.
As to `CC(Cc1cc(Cl)c(-c2nc(-c3cn4cc(C(F)(F)F)cc(Cl)c4n3)no2)cc1Cl)C(=O)O` (stereo not drawn) [Example 241, 3-(2,5-dichloro-4-{3-[8-chloro-6-(trifluoromethyl)imidazo[1,2-a]pyridin-2-yl]-1,2,4-oxadiazol-5-yl}phenyl)-2-methylpropanoic acid], the EC50 on S1P1 [2] (setting [3]) is at most 100 nM.
Consider `CC(=O)OCCOc1c(Cl)cc(-c2noc(-c3cn4cc(C(F)(F)F)cc(Cl)c4n3)n2)cc1Cl` [Example 279, 2-[(2,6-dichloro-4-{5-[8-chloro-6-(trifluoromethyl)imidazo[1,2-a]pyridin-2-yl]-1,2,4-oxadiazol-3-yl}phenyl)oxy]ethyl acetate], for which the EC50 on S1P1 [2] (setting [3]) lay within 100 to 500 nM.
With `OCCOc1c(Cl)cc(-c2noc(-c3cn4cc(C(F)(F)F)cc(Cl)c4n3)n2)cc1Cl` [Example 280, 2-[(2,6-dichloro-4-{5-[8-chloro-6-(trifluoromethyl)imidazo[1,2-a]pyridin-2-yl]-1,2,4-oxadiazol-3-yl}phenyl)oxy]ethanol], the EC50 on S1P1 [2] (setting [3]) was at most 100 nM.

The values are drawn from US20100160369A1, “S1P1 Agonists and Methods of Making And Using” (EXELIXIS, INC., priority 2008, published 2010).
